Columns and labels:
Assay type in all cases: in vivo
Ctenocephalides felis [1] = assay: Ctenocephalides felis oral test; settings: 100 ppm in citrated cattle blood, after 2 days
Excerpt: Ctenocephalides felis—Oral Test Solvent: dimethyl sulphoxide […] Dilution with citrated cattle blood gives the desired concentration. About 20 unfed adult cat fleas (Ctenocephalides felis) are placed into a chamber which is closed at the top and bottom with gauze. A metal cylinder whose bottom end is closed with parafilm is placed onto the chamber. The cylinder contains the blood/active compound preparation, which can be imbibed by the fleas through the parafilm membrane.

Lucilia cuprina = Lucilia cuprina test; settings: 100 ppm, after 2 days, L1 larvae
Experimental: (§1) Solvent: dimethyl sulphoxide
(§2) To produce a suitable preparation of active compound, 10 mg of active compound are mixed with 0.5 ml of dimethyl sulphoxide, and the concentrate is diluted with water to the desired concentration.
About 20 L1 larvae of the Australian sheep blowfly (Lucilia cuprina) are transferred into a test vessel containing minced horsemeat and the active compound preparation of the desired concentration.
After 2 days, the kill in % is determined. 100% means that all the larvae have been killed; 0% means that no larvae have been killed.

Myzus persicae [2] = assay: Myzus persicae spray test (bell pepper plants); settings: 100 ppm, after 6 days
Experimental: Myzus persicae Spray Test Solvent: 7 parts by weight of dimethylformamide Emulsifier: alkylaryl polyglycol ether […] To produce further test concentrations, the preparation is diluted with emulsifier-containing water. If the addition of ammonium salts or/and penetrants is required, these are each added in a concentration of 1000 ppm to the formulation solution. Bell pepper plants (Capsicum annuum) severely infested with the green peach aphid (Myzus persicae) are treated by spraying with the active compound preparation in the desired concentration.

Phaedon cochleariae = Phaedon cochleariae spray test; settings: 500 g/ha, after 7 days, larvae on Chinese cabbage leaf discs
Experimental: Phaedon cochleariae—Spray Test
Solvent: 78.0 parts by weight of acetone • • 1.5 parts by weight of dimethylformamide
(§3) Emulsifier: alkylaryl polyglycol ether
(§4) To produce a suitable preparation of active compound, 1 part by weight of active compound is dissolved using the stated parts by weight of solvent and made up with water containing an emulsifier concentration of 1000 ppm until the desired concentration is attained. To produce further test concentrations, the preparation is diluted with emulsifier-containing water.
After 7 days, the efficacy in % is determined. 100% means that all the beetle larvae have been killed; 0% means that no beetle larvae have been killed.

Ctenocephalides felis [3] = assay: Ctenocephalides felis in vitro contact test with adult cat fleas; settings: 5 μg/cm^2 (500 g/ha), after 48 h
Experimental: Ctenocephalides felis—In Vitro Contact Tests with Adult Cat Fleas
(§5) For the coating of the test tubes, 9 mg of active compound are first dissolved in 1 ml of acetone p.a. and then diluted to the desired concentration with acetone p.a. 250 μl of the solution are distributed homogeneously on the inner walls and the base of a 25 ml test tube by turning and rocking on an orbital shaker (rocking rotation at 30 rpm for 2 h). With 900 ppm active compound solution and internal surface 44.7 cm^2, given homogeneous distribution, an area-based dose of 5 μg/cm^2 is achieved.
After the solvent has evaporated off, the tubes are populated with 5-10 adult cat fleas (Ctenocephalides felis), sealed with a perforated plastic lid and incubated in a horizontal position at room temperature and ambient humidity. After 48 h, efficacy is determined. To this end, the test tubes are stood upright and the fleas are knocked to the base of the tube. Fleas which remain motionless at the base or move in an uncoordinated manner are considered to be dead or moribund.
100% efficacy means that all the fleas were dead or moribund. 0% efficacy means that no fleas were harmed.

Meloidogyne incognita = Meloidogyne incognita test; settings: 20 ppm, after 14 days, lettuce
Experimental: Meloidogyne incognita Test
Solvent: 125.0 parts by weight of acetone
To produce a suitable preparation of active compound, 1 part by weight of active compound is mixed with the stated amount of solvent and the concentrate is diluted with water to the desired concentration.
Vessels are filled with sand, active compound solution, an egg/larvae suspension of the southern root-knot nematode (Meloidogyne incognita) and lettuce seeds. The lettuce seeds germinate and the plants develop. The galls develop on the roots.
After 14 days, the nematicidal efficacy in % is determined by the formation of galls. 100% means that no galls were found; 0% means that the number of galls on the treated plants corresponds to the untreated control.

Myzus persicae [4] = assay: Myzus persicae spray test (Chinese cabbage leaf discs); settings: 500 g/ha, after 6 days
Experimental: Myzus persicae—Spray Test Solvent: 78 parts by weight of acetone • • 1.5 parts by weight of dimethylformamide Emulsifier: alkylaryl polyglycol ether […] To produce further test concentrations, the preparation is diluted with emulsifier-containing water. Discs of Chinese cabbage leaves (Brassica pekinensis) infested by all stages of the green peach aphid (Myzus persicae) are sprayed with an active compound preparation of the desired concentration.

Spodoptera frugiperda [5] = assay: Spodoptera frugiperda spray test (cotton leaves); settings: 100 ppm, after 7 days
Experimental: Spodoptera frugiperda—Spray Test
Solvent: 7 parts by weight of dimethylformamide
as §3
as §4, with “water. If the addition of ammonium salts or/and penetrants is required, these are each added in a concentration of 1000 ppm to the formulation solution.” for “water.”
Cotton leaves (Gossypium hirsutum) are sprayed with an active compound formulation of the desired concentration and populated with caterpillars of the armyworm (Spodoptera frugiperda).
After 7 days, the kill in % is determined. 100% means that all the caterpillars have been killed; 0% means that none of the caterpillars have been killed.

Rhipicephalus sanguineus = Rhipicephalus sanguineus in vitro contact test with adult brown dog ticks; settings: 5 μg/cm^2 (500 g/ha), after 48 h
Experimental: Rhipicephalus sanguineus—In Vitro Contact Tests with Adult Brown Dog Ticks
as §5
After the solvent has evaporated off, the tubes are populated with 5-10 adult dog ticks (Rhipicephalus sanguineus), sealed with a perforated plastic lid and incubated in a horizontal position in the dark at room temperature and ambient humidity. After 48 h, efficacy is determined. To this end, the ticks are knocked to the floor of the tube and incubated on a hotplate at 45-50° C. for not more than 5 min. Ticks which remain motionless on the floor or move in such an uncoordinated manner that they are unable to deliberately avoid the heat by climbing upwards are considered to be dead or moribund.
An efficacy of 100% means that all the ticks were dead or moribund. 0% efficacy means that none of the ticks had been harmed.

Musca domestica = Musca domestica test; settings: 20 ppm, after 2 days, adult houseflies
Experimental: as §1, §2
Vessels containing a sponge treated with sugar solution and the active compound preparation of the desired concentration are populated with 10 adult houseflies (Musca domestica).
After 2 days, the kill in % is determined. 100% means that all of the flies have been killed; 0% means that none of the flies have been killed.

Boophilus microplus = Boophilus microplus injection test; settings: 20 μg/animal, assessed after 7 days
Experimental: Boophilus microplus—Injection Test
as §1
To produce a suitable preparation of active compound, 10 mg of active compound are mixed with 0.5 ml of solvent and the concentrate is diluted with solvent to the desired concentration.
1 μl of the active compound solution is injected into the abdomen of 5 engorged adult female cattle ticks (Boophilus microplus). The animals are transferred into dishes and kept in a climate-controlled room.
Efficacy is assessed after 7 days by laying of fertile eggs. Eggs which are not visibly fertile are stored in a climate-controlled cabinet until the larvae hatch after about 42 days. An efficacy of 100% means that none of the ticks has laid any fertile eggs; 0% means that all the eggs are fertile.

Spodoptera frugiperda [6] = assay: Spodoptera frugiperda spray test (maize leaf discs); settings: 500 g/ha, after 7 days, caterpillars on maize leaf discs
Experimental: Spodoptera frugiperda—Spray Test Solvent: 78.0 parts by weight of acetone • • 1.5 parts by weight of dimethylformamide Emulsifier: alkylaryl polyglycol ether […] To produce further test concentrations, the preparation is diluted with emulsifier-containing water. Leaf discs of maize (Zea mays) are sprayed with an active compound preparation of the desired concentration and, after drying, populated with caterpillars of the armyworm (Spodoptera frugiperda).

SMILES | efficacy (kill) (Ctenocephalides felis [1]) | efficacy (kill) (Lucilia cuprina) | efficacy (kill) (Myzus persicae [2]) | efficacy (Phaedon cochleariae) | efficacy (Ctenocephalides felis [3]) | nematicidal efficacy (formation of galls) (Meloidogyne incognita) | efficacy (Myzus persicae [4]) | efficacy (kill) (Spodoptera frugiperda [5]) | efficacy (Rhipicephalus sanguineus) | efficacy (kill) (Musca domestica) | efficacy (laying of fertile eggs) (Boophilus microplus) | efficacy (Spodoptera frugiperda [6])
CCS(=O)(=O)c1ccc(N2CCOCC2)nc1-c1nc2cc(C(F)(F)F)ncc2n1C [Example 1] | 98% | 90% | 95% |  |  |  |  |  |  |  |  | 
CCS(=O)(=O)c1ccc(-n2cnc(NC(C)=O)n2)nc1-c1nc2cc(C(F)(F)F)ncc2n1C [Example 11] | 100% | 100% | 100% | 100% | 100% |  |  |  |  |  |  | 
CCS(=O)(=O)c1ccc(-n2cnc(I)c2)nc1-c1nc2cc(C(F)(F)F)ncc2n1C [Example 14] | 100% | 100% |  | 100% | 100% | 100% | 100% | 100% |  |  |  | 
CCS(=O)(=O)c1ccc(-n2nccn2)nc1-c1nc2cc(C(F)(F)F)ncc2n1C [Example 17] | 98% | 100% |  | 100% | 100% |  | 90% |  | 100% | 85% | 100% | 100%
CCS(=O)(=O)c1ccc(-n2cncn2)nc1-c1nc2cc(C(F)(F)F)ncc2n1C [Example 32] |  |  |  | 100% |  |  | 100% | 100% |  |  |  | 

— patent publication US10087192B2, “2-(het)aryl-substituted fused bicyclic heterocycle derivatives as pesticides” (BAYER CROPSCIENCE AKTIENGESELLSCHSAFT, priority 2015, dated 2018)
